# “Also recorded” adds a separate entry of the source. Where two headings read alike, the source gives them in different places.
# Legend:
# [1] = tested on: ERK; experiment: ERK phosphorylation time course after CD3 stimulation, TCR signaling blocked with PP2 at 30 min; type: cell-based, mouse; settings: for ERK phosphorylation / activity: added in combination with PP2
# Experimental: (§1) After 30 min of stimulation, cells were either left untreated (first panel on the left), or treated with the src-like kinase inhibitor PP2 either alone (second panel) or in combination with oATP (third panel) or ARL (fourth panel).
# (§2) In order to distinguish between TCR dependent and independent ERK activation, TCR signaling was blocked at 30 min after CD3 activation with the tyrosine kinase inhibitor PP2, which inhibits TCR dependent Ick/fyn src-like kinase activity.
# [2] = tested on: human T cells; experiment: Proliferation of CFSE-loaded T cells, plate-bound anti-CD3/28 (FACS); type: cell-based; settings: 100 μM oATP or 200 μM of PX10 peptide, four days
# Experimental: Our results point to a role for pannexin hemichannels in ATP release in T cells. […] CFSE-loaded human T cells were stimulated with plate-bound anti-CD3/28 antibodies in the presence of 100 μM oATP or 200 μM of PX10 peptide. Four days later, the proliferation was measured by FACS analysis.
# [3] = tested on: mouse T cells; experiment: IL-2 secretion by ELISA; type: cell-based
# [4] = tested on: T cell clones; experiment: Cellular ATP content by luciferase assay after TCR triggering; type: cell-based; settings: 200 μM PX10 preincubation 30 minutes
# Experimental: FIG. 10: The pannexin blocking peptide PX10 increases the intracellular ATP concentration upon TCR triggering.
# Finally, we tested whether the inhibition of pannexin-mediated ATP release might lead to a fast accumulation of ATP following T cell activation. T cell clones were preincubated with 200 μM PX10 for 30 minutes. They were then stimulated with biotinylated anti-CD3 antibodies followed by crosslinking with strepavidine. Samples were collected at indicated time points, detergent-solubilized and frozen until their use in a standard luciferase assay to determine cellular ATP content.
# [5] = tested on: DO11.10 T cell clones; experiment: Ca2+ imaging with P2 receptor agonists; type: cell-based, mouse
# [6] = tested on: MAPK; experiment: Protracted MAPK (p38, Erk) activation after 16 h CD3 stimulation; type: cell-based, mouse; settings: crt^−/− T cells, CD3 antibodies 16 h
# [7] = tested on: NFAT1; experiment: NFAT1 nuclear localization after T cell stimulation; type: cell-based, mouse
# Experimental: as §2
# (§3) NFAT nuclear translocation without concomitant MAPK activation, which can be obtained by ionomycin treatment, implements a transcriptional program leading to T cell anergy (Macian et al., Cell 109:719-731 (2002)). […] Then, we hypothesized that activation of T cells in the presence of oATP could induce T cell anergy.
# [8] = tested on: naïve CD4^+ T cells; experiment: IL-2 ELISA in culture supernatants, plate-bound CD3 and CD28 stimulation; type: cell-based, mouse
# Text: An inhibitory effect of oATP on peripheral blood T cell proliferation has been described (Baricordi et al., Blood 87:682-690 (1996)). […] We therefore hypothesize that ATP released from activated T cell is part of an autocrine loop, which plays an essential role in productive T cell activation.
# [9] = tested on: crt^−/− CD4^+ T cells
# [10] = tested on: ZAP-70; experiment: ZAP-70 phosphorylation after CD3 stimulation, PP2 added at 30 min; type: cell-based, mouse; settings: PP2 at 30 min after CD3 activation
# Experimental: as §1, §2
# [11] = tested on: naive CD4 T cells; experiment: T cell proliferation by CFSE dilution, plate-bound CD3 and CD28 mAbs; type: cell-based, mouse; settings: IL-2 at 250 U/ml; PMA
# [12] = tested on: Egr2 and Egr3; experiment: Real-time PCR of anergy related genes Egr2 and Egr3; type: cell-based, mouse; settings: PMA together with oATP
# Text: as §3, with “anergy. […] The effect of oATP was not due to altered turn-over of the TCR/CD3 complex at the cell surface, as determined by FACS analysis (data not shown).” for “anergy.”
# [13] = tested on: naïve CD4^+ T cells; experiment: ATP synthesis after T cell activation with CD3 antibodies; type: cell-based, mouse
# Text: CCE induced by antigenic activation of crt^−/− CD4^+ T cells might therefore be linked to a higher ATP production compared to crt^+/+ cells.
# [14] = tested on: crt^−/− CD4^+ T cells; experiment: Propidium iodide (PI) staining of treated cells
# [15] = tested on: CRAC channels; experiment: Ca2+ dependent CRAC inactivation, two sequential Ca2+ additions after tapsigargin store depletion (Fura-2); type: cell-based, mouse; settings: in the presence of CCCP
# Experimental: FIG. 1: Increased mitochondrial Ca^2+ buffering in crt^−/− T cells. • a) After ER Ca^2+ depletion with tapsigargin, CCE was induced in crt^−/− and crt^+/+ T cell clones by the addition of 0.5 mM Ca^2+ to the extracellular medium (see Example 1). After complete washout of extracellular Ca^2+, the mitochondrial Ca^2+ buffering was visualized by the addition of ionomycin. • b) Histograms representing mitochondrial Ca^2+ content after CCE with 0.5, 1 and 2 mM extracellular Ca^2+ in crt^−/− and crt^+/+ T cell clones. • c) Increased mitochondrial Ca^2+ buffering in crt^−/− T cells retards CRAG inactivation. Cells were treated with tapsigargin followed by two separate additions of Ca^2+ to the extracellular medium (see Example 1) (see also FIG. 2C). The rate of rise of cytosolic Ca^2+ concentration was calculated at the first and second addition of Ca^2+. […] (*, P<0.05, **, P<0.001, ***, P<0.0001)
# FIG. 2: Reduced Ca^2+ in the ER, unaltered mitochondrial membrane potential and decreased CRAC inactivation in crt^−/− T cells. • a) The ER Ca^2+ content of Fura-2 loaded D011.10 TCR transgenic T cell clones was assessed by addition of the SERCA pump inhibitor tapsigargin to a medium devoid of Ca^2+ (see Example 1). The passive leak of Ca^2+ from the ER into the cytosol is seen as a slow transient rise in the cytosolic Ca^2+ concentration. […]
molecule,measurement,setting,value
CCN(CC)c1ncnc2c1ncn2[C@@H]1O[C@H](COP(=O)(O)OP(=O)(O)C(Br)(Br)P(=O)(O)O)[C@@H](O)[C@H]1O [ARL67156],ERK phosphorylation / activity,[1],increase
same,ERK phosphorylation / activity,[1]; listed as ARL,increased
WRQAAFVDSY [PX10],T cell proliferation,[2],comparably to oATP
same,T cell proliferation,[2]; listed as PX10 peptide,strongly inhibited
same,IL-2 secretion,[3],strongly inhibited
same,intracellular ATP after TCR triggering,[4],rapid intracellular rise of ATP; also recorded: increases
CSc1nc(N)c2ncn([C@@H]3O[C@H](COP(=O)(O)OP(=O)(O)OP(=O)(O)O)[C@@H](O)[C@H]3O)c2n1 [MeSATP],cells activated / responsive to P2 subtype preferring agonist,[5],35%
Nc1ncnc2c1ncn2[C@@H]1O[C@H](COP(=O)(O)CP(=O)(O)OP(=O)(O)O)[C@@H](O)[C@H]1O [αβMeATP],cells activated / responsive to P2 subtype preferring agonist,[5],18%
Cc1nc(N=Nc2ccc(S(=O)(=O)O)cc2S(=O)(=O)O)c(COP(=O)(O)O)c(C=O)c1O [PPADS],prolonged activation of MAPK (p38 MAPK and Erk),[6],almost completely abolished
same,nuclear localization of NFAT1,[7],did not significantly affect
same,ERK phosphorylation / activity,[1],significant inhibition
same,IL-2 in the cell culture supernatant,"[8]; versus untreated cells, 48 h",Analogous inhibition
same,"cellular damage due to toxicity, PI staining versus untreated",[9],did not reveal any difference
BzATP,cells activated / responsive to P2 subtype preferring agonist,[5],33%
CC(C)(C)n1nc(-c2ccc(Cl)cc2)c2c(N)ncnc21 [PP2],ERK phosphorylation at later time points,[1]; PP2 alone,did not significantly affect; also recorded: less affected
same,TCR-dependent phosphorylation of ZAP-70,[10],affected; also recorded: efficiently inhibited
"Nc1ncnc2c1ncn2[C@@H]1O[C@H](COP(=O)(O)OP(=O)(O)OP(=O)(O)O)[C@@H](O)[C@H]1O [ATP, adenosine triphosphate]",cells with calcium rise,"[5]; 1 mM ATP, Ca^2+ present in the extracellular medium",52%
same,cytosolic calcium rise,[5]; absence of extracellular Ca^2+,moderate cytosolic calcium rise
"CCCCCCCCCCCCCC(=O)O[C@@H]1[C@@H](C)[C@@]2(O)[C@@H](C=C(CO)C[C@]3(O)C(=O)C(C)=C[C@@H]23)[C@@H]2C(C)(C)[C@]12OC(C)=O [PMA, phorbol 12-myristate 13-acetate, reference compound]",oATP and PPADS-dependent inhibition of IL-2 expression on addition of PMA,[8]; contemporaneous addition,rescued
same,oATP inhibition of T cell proliferation on addition of second agent,[11],completely restored
same,Egr2 and Egr3 transcription,[12],robustly reduced
CC[C@H]1/C=C/C=C/C[C@@H](C)[C@H](O)[C@@](C)(O)C(=O)[C@@H](C)[C@H](O)[C@@H](C)C(=O)[C@@H](C)[C@H](O)[C@@H](C)/C=C/C(=O)O[C@@H]2[C@H](C)[C@H](CC1)O[C@]1(CC[C@H](C)[C@H](C[C@@H](C)O)O1)[C@H]2C [oligomycin],activation induced ATP synthesis,[13],abolished
same,prolonged activation of MAPK (p38 MAPK and Erk),[6],almost completely abolished
same,nuclear localization of NFAT1,[7],did not significantly affect
same,"cellular damage due to toxicity, PI staining versus untreated",[14],did not reveal any difference
CSc1nc(N)c2ncn([C@@H]3O[C@H](COP(=O)(O)OP(=O)(O)O)[C@@H](O)[C@H]3O)c2n1 [2MeSADP],cells activated / responsive to P2 subtype preferring agonist,[5],31%
N#CC(C#N)=NNc1cccc(Cl)c1 [CCCP],"Ca^2+ dependent inactivation of CRAC channels, crt^−/− versus crt^+/+ cells",[15],comparable
